Patent US7785900B1, “Glutathione beads and GST fusion proteins” (STC.UNM, priority 2006, dated 2010)

What was measured:
Bcl-2 family proteins = conditions: Oltersdorf et al., 2005; read-out: binding constant obtained earlier; cited from earlier work
[1] = system: GST-Bcl-2 fusion proteins; assay: FPA competition assay with FITC-Bid BH3 peptide; assay type: binding, human; conditions: 100 nM GST-Bcl-2 fusion proteins, 5 nM FITC-Bid BH3
Procedure: 100 nM of GST-Bcl-2 fusion proteins were incubated with various concentrations of EGCG or control compound ECG (“C”) for 2 min in PBS buffer in 50 μL. Then, 5 nM FITC-conjugated-Bid BH3 peptide was added, bringing final volume to 100 μL and final DMSO concentration to 1%. Fluorescence polarization was measured after 20 minutes.
C1.3 FPA competition assay for Bcl-2-binding compounds. The green tea compound […] has been reported to bind Bcl-2 and Bcl-XL (Leone et al., 2003). The ability of EGCG to compete with fluorochrome-labeled BH3 peptides was confirmed by FPA. […] This compound therefore can serve as a positive control when performing high throughput screens of any compound library, including the NIH library.

GST-Rab7 [2] = biological target: T1, GST-Rab7 (Homo sapiens, UniProt P51149); assay: Competition of nucleotides with Bodipy-FL-GTP for bead-bound GST-Rab7; assay type: binding; conditions: 10 nM GST-Rab7 preloaded, 1 μM GTP*
T1 construct: made in house; host or cells: bacteria
From the text: The signal to background levels are compatible with homogeneous analysis of the binding of the fluorescent GTP analog. Moreover, the assay is conservative with respect to protein, using <1 pmol of protein per well.

GST-GFP = GST-GFP (Schistosoma japonicum, UniProt P08515); assay: biochemical
Procedure: The standard assay for monitoring the concentration of free glutathione was performed in ten microliters of HPSM buffer with 0.01% dodecyl maltoside added to reduce nonspecific binding. Typically, two microliters of 50 nM GST-GFP and two microliters of bead suspension containing 10,000 beads (as determined using a hemacytometer) were added to six microliters of buffer, with or without some competitor, giving 10 nM GST-GFP in the suspension. The ten microliter assays were gently shaken in wells of a 96 V-shaped well plate (Corning Costar #2897) on a vortex mixer in a cold room for two hours.

Ras superfamily members = assay: Multiplex Bodipy-FL-GTP binding and GTP competition
Procedure: The Bodipy-FL-GTP binding assay established using wild-type GST-Rab7 was adapted for multiplex, high-throughput assays by Sklar and colleagues.
384-well microplates are configured with 64 control wells (columns 1 and 2 unblocked, and columns 23 and 24 with 1 mM GTP), leaving 320 wells to which test compounds are added as per the Roadmap compound plates supplied. Compounds from the molecular library and GTP controls are added in 5 μl, Bodipy-FL-GTP is added in 5 μl, and GST-G protein-coated beads are added in 5 μl. […] The bead sets are coated by mixing each “address level of red fluorescence” bead type individually in the presence of ˜60 nM GST-small G protein for two hours with 5,000 beads per microliter. The sets are then combined together, centrifuged, and resuspended just before addition to the assay plate. The beads are kept in suspension during the competitive assay using rotation at 22° C. for 2 hours, then the plate is read at room temperature at a cytometer.

GST-Rab7 [3] = biological target: T1, GST-Rab7; assay: Bodipy-FL-GTP binding to and dissociation from bead-bound GST-Rab7
Procedure: A fluorescent GTP-binding assay capable of being monitored by flow cytometry was developed and optimized using GST-Rab7 protein and Bodipy-FL-GTP (GTP*). […] Values are usually expressed as 1000 fluorescence equivalents of fluorescein in free solution (kMESF).
The binding of purified GST-Rab7 to bGSH was measured by using increasing concentrations (1.0-316.0 nM) of GST-Rab7 with a fixed amount of bGSH (−10,000 beads/reaction and excess (1.0 µM) GTP*).
In order to measure the rate of GTP* dissociation from bead-bound Rab7, bGSH were pre-loaded with 100 nM GST-Rab7 and incubated with 1 µM GTP* at 37° C. for 2 h. Dissociation of GTP* from the beads was then measured at 37° C. both for simple dilution with buffer as well as upon addition of 1000-fold higher (1 mM) non-fluorescent GTP (FIG. 6). The calculated half-time was 72.7s. The rate of dissociation in the presence of 1 mM unlabeled GTP alone was 9.6×10^−3s^−1.

T1 sequence (P51149 whole entry): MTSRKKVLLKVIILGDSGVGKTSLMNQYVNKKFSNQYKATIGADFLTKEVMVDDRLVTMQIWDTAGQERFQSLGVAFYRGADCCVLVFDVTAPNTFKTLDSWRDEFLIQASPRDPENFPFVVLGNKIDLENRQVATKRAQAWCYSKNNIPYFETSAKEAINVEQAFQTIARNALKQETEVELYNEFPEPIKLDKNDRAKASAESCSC
Chain of GST-GFP (P08515 2-218, added parts left off): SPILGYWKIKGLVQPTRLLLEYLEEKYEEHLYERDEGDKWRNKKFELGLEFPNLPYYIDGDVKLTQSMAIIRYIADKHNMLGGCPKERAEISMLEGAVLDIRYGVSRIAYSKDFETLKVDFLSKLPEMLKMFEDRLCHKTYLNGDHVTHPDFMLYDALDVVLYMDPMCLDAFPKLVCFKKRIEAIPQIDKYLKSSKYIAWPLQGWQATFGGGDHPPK

For `CN(C)CC[C@H](CSc1ccccc1)Nc1ccc(S(=O)(=O)NC(=O)c2ccc(N3CCN(Cc4ccccc4-c4ccc(Cl)cc4)CC3)cc2)cc1[N+](=O)[O-]` [ABT737], the Ki (Bcl-2 family proteins) is listed as under 1 nM.
For `O=C(O[C@@H]1Cc2c(O)cc(O)cc2O[C@@H]1c1cc(O)c(O)c(O)c1)c1cc(O)c(O)c(O)c1` [ECGC, epigallecatechin], the “competition with FITC-Bid BH3 peptide” value [1] was “binds to all six anti-apoptotic members of the Bcl-2-family, to variable extents”.
For `Nc1nc2c(ncn2[C@@H]2O[C@H](COP(=O)(O)OP(=O)(O)O)[C@@H](O)[C@H]2O)c(=O)[nH]1` [GDP], the EC50 (GST-Rab7 [2]) was 560 nM.
In the case of `N[C@@H](CCC(=O)N[C@@H](CS)C(=O)NCC(=O)O)C(=O)O` [GSH, γ-glu-cys-gly], the EC50 (GST-GFP) is reported as 39000 nM and the Ki (GST-GFP) is reported as 35000 nM.
With `Cc1cc(C)n2c1C=C1C=CC(CCC(=O)NCCNC(=O)OC3C(COP(=O)(O)OP(=O)(O)OP(=O)(O)O)OC(n4cnc5c(=O)[nH]c(N)nc54)C3O)=[N+]1[B-]2(F)F` (stereo not drawn) [GTP*] the specific binding affinities (Ras superfamily members; fourplex) was “within a factor of two of each other”, the EC50s (Ras superfamily members; sixplex, 25 or 50 nM Bodipy-FL-GTP) was “within the same order of magnitude” and the rate of dissociation (GST-Rab7 [3]; 1 mM GTP alone, 37° C.) was 0.0096 s⁻¹. For the same molecule, the Kd (GST-Rab7 [3]; GTP* binding to GST-Rab7) was 94 nM.
